Results published in publication PMC12339935 (Scientific Reports, 2025).
In brackets after ≈: the same amount, converted by molar mass.

Key:
in vitro [1] = conditions: human (MCF-7, NCI-H187); African green monkey (Vero)
[2] = tested on: Staphylococcus aureus ATCC 29213; assay: Antibacterial optical density microplate assay, S. aureus; assay type: cell-based; conditions: ATCC29213, read-out: Anti-Staphylococcus aureus (MIC, µg/ml)
Mycobacterium bovis = conditions: cited from earlier work
Escherichia coli = conditions: literature value; cited from earlier work
S. aureus = conditions: literature value; cited from earlier work
[3] = tested on: Bacillus cereus ATCC 11778; assay: Antibacterial optical density microplate assay, B. cereus; assay type: cell-based; conditions: for MIC: Bacillus cereus, ATCC11778, read-out: Anti-Bacillus cereus (MIC, µg/ml); for Anti-Bacillus cereus (MIC, µg/ml): B. cereus ATCC 11778, maximum tested concentration 50 µg/ml
in vitro [4] = conditions: human
in vitro [5] = conditions: human; remark: listed apart in the source
[6] = tested on: NCI-H187 (human small-cell lung cancer) cells; conditions: maximum tested concentration 50 µg/ml
Vero cells = conditions: non-cancerous, maximum tested concentration 50 µg/ml
[7] = tested on: MCF-7 (human breast cancer) cells; conditions: maximum tested concentration 50 µg/ml

SMILES	MIC [2] [µg/mL]	MIC [3] [µg/mL]	Cytotoxicity (IC50, µM) Vero (Vero cells)	Cytotoxicity (IC50, µM) MCF-7 [7]	Anti-Bacillus cereus (MIC, µg/ml) [3]	also measured
CC(=O)Nc1c2sscc-2n(C)c1=O [Compound 1, thiolutin]	3.13 (≈ 13.7 µM)	1.56 (≈ 6.83 µM)	–	–	–	IC50 (in vitro [1]): 0.35 to 5.61 µM; MIC against Mycobacterium bovis (Mycobacterium bovis): 0.313 µg/mL (≈ 1.37 µM); MIC against Escherichia coli (Escherichia coli): 6.25 µg/mL (≈ 27.4 µM); MIC against S. aureus (S. aureus): 3.125 µg/mL (≈ 13.7 µM)
Cc1c2ccncc2c(C)c2c1[nH]c1ccccc12 [Ellipticine, reference compound]	–	–	–	–	–	IC50 (in vitro [4]): 11.8 µM
CC/C(=C(\c1ccccc1)c1ccc(OCCN(C)C)cc1)c1ccccc1 [Tamoxifen]	–	–	–	–	–	IC50 (in vitro [5]): 43.4 µM
COc1cccc(C(N)=O)c1O [Compound 6, 2-hydroxy-3-methoxybenzamide]	–	–	Inactive	Inactive	Inactive	Cytotoxicity (IC50, µM) NCI-H187 [6]: Inactive
CN[C@H](CC(C)C)C(=O)N[C@H]1C(=O)N[C@@H](CC(N)=O)C(=O)N[C@H]2C(=O)N[C@H]3C(=O)N[C@H](C(=O)N[C@H](C(=O)O)c4cc(O)cc(O)c4-c4cc3ccc4O)[C@H](O)c3ccc(c(Cl)c3)Oc3cc2cc(c3O[C@@H]2O[C@H](CO)[C@@H](O)[C@H](O)[C@H]2O[C@H]2C[C@](C)(N)[C@H](O)[C@H](C)O2)Oc2ccc(cc2Cl)[C@H]1O [Vancomycin, reference compound]	4 (≈ 2.76 µM)	1 to 2 (≈ 0.69 to 1.38 µM)	–	–	–	–
NC(=O)c1cccc(O)c1O [Compound 5, 2,3-dihydroxybenzamide]	–	–	Inactive	Inactive	Inactive	IC50 (in vitro [4]): 33.8 µM
Nc1cccc2c(=O)[nH]c(=O)oc12 [Compound 3, 8-amino-2 H-benz[e][1,3]oxazine-2,4(3 H)-dione]	–	–	Inactive	Inactive	Inactive	Cytotoxicity (IC50, µM) NCI-H187 [6]: Inactive
CO[C@H]1/C=C/O[C@@]2(C)Oc3c(C)c(O)c4c(O)c(c(/C=N/N5CCN(C)CC5)c(O)c4c3C2=O)NC(=O)/C(C)=C\C=C\[C@H](C)[C@H](O)[C@@H](C)[C@@H](O)[C@@H](C)[C@H](OC(C)=O)[C@@H]1C [Rifampicin, reference compound]	0.04 to 0.56 (≈ 0.0486 to 0.68 µM)	0.16 to 0.63 (≈ 0.194 to 0.766 µM)	–	–	–	–
